Structures are written as SMILES. pIC50: −log10 of the molar value.

In this test the target is T1, human TRH-DE (Homo sapiens, UniProt Q9UKU6).
T1 construct: expressed in transfected cells; host or cells: Expi 293 cells (transient expression), membrane fraction
T1 sequence (Q9UKU6 1-1069): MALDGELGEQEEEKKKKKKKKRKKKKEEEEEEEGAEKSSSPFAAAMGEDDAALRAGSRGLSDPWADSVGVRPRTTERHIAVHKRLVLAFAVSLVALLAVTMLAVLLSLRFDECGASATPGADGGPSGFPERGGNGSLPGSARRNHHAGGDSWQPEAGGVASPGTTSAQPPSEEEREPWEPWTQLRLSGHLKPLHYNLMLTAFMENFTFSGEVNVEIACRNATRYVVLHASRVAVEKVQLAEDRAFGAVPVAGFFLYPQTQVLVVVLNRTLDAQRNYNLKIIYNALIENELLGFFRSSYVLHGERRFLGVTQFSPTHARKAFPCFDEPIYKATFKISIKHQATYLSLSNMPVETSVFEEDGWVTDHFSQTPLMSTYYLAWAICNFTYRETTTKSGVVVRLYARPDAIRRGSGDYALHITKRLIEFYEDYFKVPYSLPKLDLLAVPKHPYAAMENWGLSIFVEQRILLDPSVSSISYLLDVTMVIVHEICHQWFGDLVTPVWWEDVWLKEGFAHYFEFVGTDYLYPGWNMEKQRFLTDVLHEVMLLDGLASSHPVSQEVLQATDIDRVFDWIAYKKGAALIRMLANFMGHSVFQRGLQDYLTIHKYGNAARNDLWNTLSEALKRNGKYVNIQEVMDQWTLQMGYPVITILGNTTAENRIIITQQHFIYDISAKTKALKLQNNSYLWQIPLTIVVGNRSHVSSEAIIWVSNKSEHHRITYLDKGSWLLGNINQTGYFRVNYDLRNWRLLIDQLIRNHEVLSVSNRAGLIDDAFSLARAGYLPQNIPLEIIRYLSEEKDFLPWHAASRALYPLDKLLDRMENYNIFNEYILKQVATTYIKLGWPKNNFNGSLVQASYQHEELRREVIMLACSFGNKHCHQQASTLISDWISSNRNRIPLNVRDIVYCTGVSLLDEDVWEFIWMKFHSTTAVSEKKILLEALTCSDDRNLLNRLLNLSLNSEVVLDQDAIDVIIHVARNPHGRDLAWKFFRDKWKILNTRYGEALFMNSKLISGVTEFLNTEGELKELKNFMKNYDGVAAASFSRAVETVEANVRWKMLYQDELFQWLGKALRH
Put plainly: TRH-DE inhibition test (RapidFire MS measurement of product Cyclo (His-Pro)). Particulars: membrane fraction of Expi 293 cells expressing human TRH-DE; 10 μM TRH substrate; room temperature, 2 hours; 16-point concentration test. In kind it is biochemical. An outline of the steps:
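Membrane fraction from Expi 293 cells transiently expressing human TRH-DE, at 4 μg/ml in phosphate buffer pH 7.4 with 200 μM bacitracin, reacted with compound and 10 μM substrate for 2 h at room temperature. Cyclo(His-Pro) measured by RapidFire MS against an isotope internal standard. IC50 from 16-point curves.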

Usually pIC50 stands for the negative decadic logarithm of the IC50, by convention in mol/L. Higher therefore signals a low IC50. Regarding `C[C@@H]1CCn2nc(C3(C(F)(F)F)CC3)cc2C(=O)N1C1CC2(C1)CN(S(=O)(=O)c1ccccc1F)C2` [Example 192], the pIC50 was 8.05.

Consider `C[C@@H]1COc2cc(F)cnc2C(=O)N1C1CC2(C1)CN(S(=O)(=O)c1ccccc1F)C2` [Example 11], for which the pIC50 is 8.40.

In turn, `CC1C=Cc2nc(C(F)(F)F)ccc2C(=O)N1C1CC2(C1)CN(S(=O)(=O)c1ccccc1F)C2` (stereo not shown) [Example 111, 6-[2-(2-fluorophenyl)sulfonyl-2-azaspiro[3.3]heptan-6-yl]-7-methyl-2-(trifluoromethyl)-7H-pyrido[3,2-c]azepin-5-one] showed a pIC50 of 7.22. This pIC50 lies 1.18 log units lower than the previous one.

Regarding `Cc1nc2c(cc1F)C(=O)N(C1CC3(C1)CN(S(=O)(=O)c1ccccc1[N+](=O)[O-])C3)[C@H](C)CO2` [Example 58], the pIC50 is 6.74.

The compound `C[C@@H]1COc2nc(N3CCC3)ncc2C(=O)N1C1CC2(C1)CN(S(=O)(=O)c1ccccc1F)C2` [Example 395] gave a pIC50 of 8.52. This pIC50 lies 1.78 log units higher than the previous one.

For the compound `C[C@@H]1CN(C)c2nc(C(F)(F)F)ccc2C(=O)N1C1CC2(C1)CN(S(=O)(=O)c1ccccc1F)C2` [Example 247, (3R)-4-[2-(2-fluorophenyl)sulfonyl-2-azaspiro[3.3]heptan-6-yl]-1,3-dimethyl-8-(trifluoromethyl)-2,3-dihydropyrido[2,3-e][1,4]diazepin-5-one], the pIC50 is 8.70.

Regarding `C[C@@H]1CNc2cccnc2C(=O)N1C1CC2(C1)CN(S(=O)(=O)c1ccccc1F)C2` [Example 338, (3R)-4-[2-(2-fluorophenyl)sulfonyl-2-azaspiro[3.3]heptan-6-yl]-3-methyl-2,3-dihydro-1H-pyrido[3,2-e][1,4]diazepin-5-one], the pIC50 was 8.40. Against the preceding compound, the pIC50 is 0.30 log units lower.

`CC[C@@H]1COc2ncc(F)cc2C(=O)N1C1CC2(C1)CN(S(=O)(=O)c1ccccc1F)C2` [Example 41] showed a pIC50 of 7.15.

Compound `C[C@@H]1COc2nn(C)cc2C(=O)N1C1CC2(C1)CN(S(=O)(=O)c1ccccc1F)C2` [Example 209] had a pIC50 of 7.66. Against the preceding compound, the pIC50 is 0.51 log units higher.

On to `C[C@@H]1COc2ncc(C(F)(F)F)cc2C(=O)N1C1CC2(C1)CN(S(=O)(=O)c1ccccc1F)C2` [Example 33], for which the pIC50 is 7.82. The pIC50 values of the last two compounds are within 0.2 log units of each other.

The compound `C[C@@H]1COc2ncc(Cl)cc2C(=O)N1C1CC2(C1)CN(S(=O)(=O)c1ccccc1F)C2` [Example 32] gave a pIC50 of 8.52. Against the preceding compound, the pIC50 is 0.70 log units higher.

On to `CC1CCCNC(=O)N1C1CC2(C1)CN(S(=O)(=O)c1ccccc1F)C2` (stereo not shown) [Example 432, 1-[2-(2-fluorophenyl)sulfonyl-2-azaspiro[3.3]heptan-6-yl]-7-methyl-1,3-diazepan-2-one], for which the pIC50 was 6.46.

`CC1CCC2CC2C(=O)N1C1CC2(C1)CN(S(=O)(=O)c1ccccc1F)C2` (racemic) [Example 107]: the pIC50 is 7.74.

`CC1COc2ccccc2C(=O)N1C1CC2(C1)CN(S(=O)(=O)c1ccccc1F)C2` (stereo not shown) [Example 239, 4-[2-(2-fluorophenyl)sulfonyl-2-azaspiro[3.3]heptan-6-yl]-3-methyl-2,3-dihydro-1,4-benzoxazepin-5-one] showed a pIC50 of 7.96.

Turning to `C[C@@H]1CCn2cncc2C(=O)N1C1CC2(C1)CN(S(=O)(=O)c1ccccc1F)C2` [Example 309, (7R)-8-[2-(2-fluorophenyl)sulfonyl-2-azaspiro[3.3]heptan-6-yl]-7-methyl-6,7-dihydro-5H-imidazo[1,5-a][1,4]diazepin-9-one], the pIC50 was 7.49.

As to `C[C@@H]1COc2nc(N3CC(C#N)C3)ncc2C(=O)N1C1CC2(C1)CN(S(=O)(=O)c1ccccc1F)C2` [Example 411], the pIC50 is 8.10. Against the preceding compound, the pIC50 is 0.61 log units higher.

`CC1Cc2ccccc2OC(=O)N1C1CC2(C1)CN(S(=O)(=O)c1ccccc1F)C2` (racemic) [Example 71] showed a pIC50 of 6.90.

In turn, `C[C@@H]1COc2nc(N3C[C@H]4COC[C@H]4C3)ncc2C(=O)N1C1CC2(C1)CN(S(=O)(=O)c1ccccc1F)C2` [Example 388] had a pIC50 of 8.40.

Regarding `CCCN(C(=O)c1cccnc1OC)C1CC2(C1)CN(S(=O)(=O)c1ccccc1F)C2` [Example 416], the pIC50 is 6.17.

On to `C[C@@H]1CCN(CC2CC2)CC(=O)N1C1CC2(C1)CN(S(=O)(=O)c1ccccc1F)C2` [Example 443, (7R)-4-(cyclopropylmethyl)-1-[2-(2-fluorophenyl)sulfonyl-2-azaspiro[3.3]heptan-6-yl]-7-methyl-1,4-diazepan-2-one], for which the pIC50 was 6.80.

Take `Cc1nn(C2CC3(C2)CN(S(=O)(=O)c2ccccc2)C3)c(=O)c2ccccc12` [Example 241]: the negative logarithm of the IC50 (pIC50) was 6.21. This pIC50 is 0.59 log units lower than that of the compound before.

In the case of `CC1CCc2nc(C3CC3)oc2C(=O)N1C1CC2(C1)CN(S(=O)(=O)c1ccccc1F)C2` (racemic) [Example 102], the pIC50 is 8.22.

Take `CC1CCOCC(=O)N1C1CC2(C1)CN(S(=O)(=O)c1ccccc1F)C2` (stereo not shown) [Example 457, 4-[2-(2-fluorophenyl)sulfonyl-2-azaspiro[3.3]heptan-6-yl]-5-methyl-1,4-oxazepan-3-one]: the pIC50 was 6.77. Compared with the last compound, the pIC50 is 1.45 log units lower.

In the case of `CC1c2cc(C(F)(F)F)cnc2C(=O)N1C1CC2(C1)CN(S(=O)(=O)c1ccccc1F)C2` (stereo not shown) [Example 290, 6-[2-(2-fluorophenyl)sulfonyl-2-azaspiro[3.3]heptan-6-yl]-5-methyl-3-(trifluoromethyl)-5H-pyrrolo[3,4-b]pyridin-7-one], the pIC50 is 6.98.

Consider `C[C@@H]1Cn2c(nnc2C2CC2)C(=O)N1C1CC2(C1)CN(S(=O)(=O)c1ccccc1F)C2` [Example 265], for which the pIC50 was 6.54.

Turning to `C[C@@H]1CCN(Cc2ccccc2)CC(=O)N1C1CC2(C1)CN(S(=O)(=O)c1ccccc1F)C2` [Example 446], the pIC50 was 6.77.

As to `CC1CN(C2CC3(C2)CN(S(=O)(=O)c2ccccc2F)C3)C(=O)c2ncccc2O1` (racemic) [Example 2], the pIC50 was 6.00.

Consider `CCCN(C(=O)c1cccnc1OC)C1CC2(C1)CN(S(=O)(=O)c1cccc(C)c1)C2` [Example 414, 2-methoxy-N-[2-(3-methylphenyl)sulfonyl-2-azaspiro[3.3]heptan-6-yl]-N-propylpyridine-3-carboxamide], for which the pIC50 was 6.21.

Take `C[C@@H]1COc2cc(N3CCCC3C(F)(F)F)ncc2C(=O)N1C1CC2(C1)CN(S(=O)(=O)c1ccccc1F)C2` (mixture of isomers) [Example 146]: the pIC50 was 9.00.

`CC1Cc2ccccc2C(=O)N1C1CC2(C1)CN(S(=O)(=O)c1ccccc1F)C2` (stereo not shown) [Example 240] gave a pIC50 of 7.85.

`C[C@@H]1COc2nc(C3CC3)ccc2C(=O)N1C1CC2(C1)CN(S(=O)(=O)c1ccccc1F)C2` [Example 316] had a pIC50 of 8.70.

The compound `C[C@@H]1CCN(C(=O)c2ccc3ccccc3c2)CC(=O)N1C1CC2(C1)CN(S(=O)(=O)c1ccccc1F)C2` [Example 451] had a pIC50 of 7.12.

`C[C@@H]1COc2ccncc2C(=O)N1C1CC2(C1)CN(S(=O)(=O)c1ccccc1F)C2` [Example 19] showed a pIC50 of 8.70.

Take `CCCN(C(=O)c1ccnc2[nH]ccc12)C1CC2(C1)CN(S(=O)(=O)c1cc(C)ccc1F)C2` [Example 428]: the pIC50 was 7.85.

`C[C@@H]1COc2noc(C(C)(C)C)c2C(=O)N1C1CC2(C1)CN(S(=O)(=O)c1ccccc1F)C2` [Example 219] gave a pIC50 of 7.42.

`CC1c2cc(F)cnc2C(=O)N1C1CC2(C1)CN(S(=O)(=O)c1ccccc1F)C2` (racemic) [Example 292] had a pIC50 of 6.81. This pIC50 is 0.61 log units lower than that of the compound before.

`C[C@@H]1COc2cc(C(F)(F)F)cnc2C(=O)N1C1CC2(C1)CN(S(=O)(=O)c1ccccc1F)C2` [Example 337] gave a pIC50 of 8.70.

In turn, `C[C@@H]1CCn2c(cnc2Br)C(=O)N1C1CC2(C1)CN(S(=O)(=O)c1ccccc1F)C2` [Example 214] gave a pIC50 of 7.96.

`C[C@@H]1COc2cc(N3CCCC(F)(F)C3)ncc2C(=O)N1C1CC2(C1)CN(S(=O)(=O)c1ccccc1F)C2` [Example 157] had a pIC50 of 9.00.

Compound `CCC1c2ccccc2C(=O)N1C1CC2(C1)CN(S(=O)(=O)c1ccccc1)C2` (racemic) [Example 268] showed a pIC50 of 6.97.

Turning to `Cc1nc(Br)n2c1C(=O)N(C1CC3(C1)CN(S(=O)(=O)c1ccccc1F)C3)[C@H](C)CC2` [Example 216], the pIC50 was 7.34. Against the preceding compound, the pIC50 is 0.37 log units higher.

`Cc1nc(C2CC2)c2n1C[C@@H](C)N(C1CC3(C1)CN(S(=O)(=O)c1ccccc1F)C3)C2=O` [Example 329]: the pIC50 is 7.17.

Take `C[C@H]1CCn2nc(C3CC3)cc2C(=O)N1C1CC2(C1)CN(S(=O)(=O)c1ccccc1F)C2` [Example 189]: the pIC50 was 7.17.
